Our source for the T/C values is PubChem BioAssay AID192 (DTP/NCI, 2004).

For this experiment, the system named is BDF1 mice, B16 melanoma ip, median survival T/C. Briefly: NCI In Vivo Anticancer Drug Screen. Data for tumor model B16 Melanoma (intraperitoneal) in B6D2F1 (BDF1) mice. Particulars: endpoint: median survival time, higher = longer survival. As for the experimental part:
The antitumor activity of compounds was measured in mice bearing transplantable tumors. Survival or tumor size were measured and the results are expressed as the measurement made in the treated group (T) divided by the measurement made in the vehicle treated control group (C). The tumor model used in this assay is B16 Melanoma (intraperitoneal) in B6D2F1 (BDF1) mice

Where [1] appears, read: dose: 25.0 mg/kg/injection, schedule: Q01DX009 (ip), vehicle: saline with Tween-80.
Where [2] appears, read: dose: 50.0 mg/kg/injection, schedule: Q01DX009 (ip), vehicle: saline with Tween-80.
The mark [3] stands for this setting: dose: 100.0 mg/kg/injection, schedule: Q01DX009 (ip), vehicle: saline with Tween-80.
Where [4] appears, read: dose: 50.0 mg/kg/injection, schedule: Q01DX009 (ip), vehicle: Klucel (hydroxypropylcellulose) (HPC).
The mark [5] stands for this setting: dose: 100.0 mg/kg/injection, schedule: Q01DX009 (ip), vehicle: Klucel (hydroxypropylcellulose) (HPC).
Setting [6] is: dose: 200.0 mg/kg/injection, schedule: Q01DX009 (ip), vehicle: Klucel (hydroxypropylcellulose) (HPC).
[7] abbreviates: dose: 25.0 mg/kg/injection, schedule: Q01DX009 (ip), vehicle: Klucel (hydroxypropylcellulose) (HPC).
Where [8] appears, read: dose: 400.0 mg/kg/injection, schedule: Q01DX009 (ip), vehicle: Klucel (hydroxypropylcellulose) (HPC).
Where [9] appears, read: dose: 100.0 mg/kg/injection, schedule: Q04DX003 (ip), vehicle: saline.
[10] abbreviates: dose: 25.0 mg/kg/injection, schedule: Q01DX009 (ip), vehicle: saline.
[11] abbreviates: dose: 50.0 mg/kg/injection, schedule: Q01DX009 (ip), vehicle: saline.
[12] abbreviates: dose: 200.0 mg/kg/injection, schedule: Q01DX009 (ip), vehicle: saline with Tween-80.
The mark [13] stands for this setting: dose: 400.0 mg/kg/injection, schedule: Q01DX009 (ip), vehicle: saline with Tween-80.

Where “and” joins values, the source holds several entries; their conditions need not be identical. Equal values may be shown once. Toxic doses and inconclusive results are not listed.

Regarding `CCS/C(SC)=C(/c1ccccc1)[P+](c1ccccc1)(c1ccccc1)c1ccccc1`, the T/C is, setting by setting: (dose: 0.19 mg/kg/injection, schedule: Q01DX009 (ip), vehicle: Klucel (hydroxypropylcellulose) (HPC)) 99 % of control; (dose: 0.38 mg/kg/injection, schedule: Q01DX009 (ip), vehicle: Klucel (hydroxypropylcellulose) (HPC)) 99 % of control; (dose: 0.75 mg/kg/injection, schedule: Q01DX009 (ip), vehicle: Klucel (hydroxypropylcellulose) (HPC)) 100 % of control; (dose: 1.5 mg/kg/injection, schedule: Q01DX009 (ip), vehicle: Klucel (hydroxypropylcellulose) (HPC)) 95 % of control and 106 % of control.

Turning to `CC(C)CNC(=O)c1ccc(N=NN(C)Cc2ccncc2)cc1`, the T/C was 93 % of control under setting [1], 97 % of control under setting [2] and 103 % of control under setting [3].

Consider `COC1CC(C)C(OC)C2=CC(=O)C=C(NC(=O)/C(C)=C/C=C\C(C)C(OC(N)=O)/C(C)=C\C(C)C1OC)C2=O` (centres undefined), for which the T/C (dose: 5.0 mg/kg/injection, schedule: Q01DX009 (ip), vehicle: saline + alcohol) was 152 % of control and the T/C (dose: 10.0 mg/kg/injection, schedule: Q01DX009 (ip), vehicle: saline + alcohol) is 172 % of control.

Regarding `O=C(O)CNc1ccccc1C(=O)O`, the T/C is, setting by setting: under setting [4], 108 % of control; under setting [5], 94 % of control; under setting [6], 91 % of control.

For `Cc1cnccc1Br`, the T/C is, setting by setting: (dose: 25.0 mg/kg/injection, schedule: Q01DX009 (ip), vehicle: water) 96 % of control; (dose: 50.0 mg/kg/injection, schedule: Q01DX009 (ip), vehicle: water) 97 % of control.

`Cc1ccc(C)c(C2NC(=O)c3ccccc3N2)c1` (centres undefined): the T/C under setting [5] was 121 % of control and the T/C under setting [6] is 115 % of control.

On to `CCCCNC(=O)Nc1cc(C)c(C)cc1C`, for which the T/C (dose: 50.0 mg/kg/injection, schedule: Q01DX009 (ip), vehicle: gum acacia) was 95 % of control; the T/C (dose: 100.0 mg/kg/injection, schedule: Q01DX009 (ip), vehicle: gum acacia) is 99 % of control; the T/C (dose: 200.0 mg/kg/injection, schedule: Q01DX009 (ip), vehicle: gum acacia) was 91 % of control.

In the case of `CP(=S)(c1ccccc1)P(C)(=S)c1ccccc1` (centres undefined), the T/C under setting [6] is 119 % of control.

For `NC(CSCc1ccccc1)C(=O)O` (centres undefined), the T/C was 98 % of control under setting [7]; 106 % of control under setting [4]; 102 % of control under setting [5]; 98 % of control under setting [6]; 117 % of control under setting [8].

As to `COc1cccc(/C=C/[N+](=O)[O-])c1`, the T/C was 98 % of control (dose: 5.0 mg/kg/injection, schedule: Q01DX009 (ip), vehicle: saline with Tween-80); 101 % of control (dose: 10.0 mg/kg/injection, schedule: Q01DX009 (ip), vehicle: saline with Tween-80); 94 % of control and 98 % of control (dose: 20.0 mg/kg/injection, schedule: Q01DX009 (ip), vehicle: saline with Tween-80).

On to `CC(C)CC(N)C(=O)OCc1ccccc1` (centres undefined), for which the T/C runs as follows: under setting [9], 109 % of control; (dose: 200.0 mg/kg/injection, schedule: Q01DX009 (ip), vehicle: saline) 93 % of control; (dose: 200.0 mg/kg/injection, schedule: Q04DX003 (ip), vehicle: saline) 104 % of control; (dose: 400.0 mg/kg/injection, schedule: Q01DX009 (ip), vehicle: saline) 91 % of control; (dose: 400.0 mg/kg/injection, schedule: Q04DX003 (ip), vehicle: saline) 100 % of control.

Turning to `C=CCOP(=O)(N1CC1C)N1CC1C` (centres undefined), the T/C by setting is: under setting [10], 95 % of control; under setting [11], 96 % of control; (dose: 50.0 mg/kg/injection, schedule: Q04DX003 (ip), vehicle: saline) 97 % of control; under setting [9], 105 % of control.

For the compound `OC1CCCC2CCC[N-]C12.OC1CCCC2CCC[N-]C12.[Mn+2]` (centres undefined), the T/C (dose: 12.5 mg/kg/injection, schedule: Q01DX009 (ip), vehicle: Klucel (hydroxypropylcellulose) (HPC)) was 109 % of control; the T/C under setting [7] is 95 % of control; the T/C under setting [4] is 105 % of control; the T/C under setting [5] is 94 % of control; the T/C under setting [6] was 98 % of control.

With `CCCCCCn1c(O)c(C=N)c(=O)[nH]c1=O`, the T/C is 95 % of control under setting [5], 96 % of control under setting [6] and 112 % of control under setting [8].

For the compound `O=C(NO)N/N=C/c1ccccc1`, the T/C is 106 % of control (dose: 100.0 mg/kg/injection, schedule: Q04DX003 (ip), vehicle: saline with Tween-80); 104 % of control (dose: 200.0 mg/kg/injection, schedule: Q04DX003 (ip), vehicle: saline with Tween-80); 90 % of control (dose: 400.0 mg/kg/injection, schedule: Q04DX003 (ip), vehicle: saline with Tween-80).

Consider `CCOC(=O)Nc1nccs1`, for which the T/C reads like this: under setting [1], 97 % of control; under setting [2], 89 % of control; under setting [3], 89 % of control; under setting [12], 89 % of control.

For `O=C(CCCC(=O)N1CCOCC1)N1CCOCC1`, the T/C was 97 % of control (dose: 100.0 mg/kg/injection, schedule: Q04DX003 (ip), vehicle: Klucel (hydroxypropylcellulose) (HPC)); 95 % of control (dose: 200.0 mg/kg/injection, schedule: Q04DX003 (ip), vehicle: Klucel (hydroxypropylcellulose) (HPC)); 92 % of control (dose: 400.0 mg/kg/injection, schedule: Q04DX003 (ip), vehicle: Klucel (hydroxypropylcellulose) (HPC)).

With `O=C1c2ccccc2C(=O)c2c(NCCSCCO)ccc(NCCSCCO)c21`, the T/C (dose: 16.0 mg/kg/injection, schedule: Q01DX009 (ip), vehicle: Klucel (hydroxypropylcellulose) (HPC)) was 94 % of control; the T/C (dose: 32.0 mg/kg/injection, schedule: Q01DX009 (ip), vehicle: Klucel (hydroxypropylcellulose) (HPC)) was 103 % of control; the T/C (dose: 64.0 mg/kg/injection, schedule: Q01DX009 (ip), vehicle: Klucel (hydroxypropylcellulose) (HPC)) is 96 % of control; the T/C (dose: 128.0 mg/kg/injection, schedule: Q01DX009 (ip), vehicle: Klucel (hydroxypropylcellulose) (HPC)) was 88 % of control; the T/C (dose: 256.0 mg/kg/injection, schedule: Q01DX009 (ip), vehicle: Klucel (hydroxypropylcellulose) (HPC)) was 87 % of control.

For `CCOC(=O)c1[nH]c(C)nc1/N=N/N(C)C`, the T/C was 111 % of control (dose: 12.5 mg/kg/injection, schedule: Q01DX009 (ip), vehicle: saline); 110 % of control under setting [10]; 111 % of control under setting [11]; 123 % of control (dose: 100.0 mg/kg/injection, schedule: Q01DX009 (ip), vehicle: saline).

For `COC(=O)C(Br)C(Br)c1ccccc1` (centres undefined), the T/C reads like this: under setting [3], 90 % of control; under setting [12], 90 % of control; under setting [13], 90 % of control.

Take `COc1ccccc1N=Nc1c(O)ccc2ccccc12`: the T/C under setting [1] is 101 % of control, the T/C under setting [2] was 112 % of control and the T/C under setting [3] was 108 % of control.

Take `C[C@@H]1C[C@@]2(O[C@@H]2C)C(=O)O[C@@H]2CCN3CC=C(COC(=O)[C@]1(C)O)[C@H]23`: the T/C (dose: 10.0 mg/kg/injection, schedule: Q01DX009 (ip), vehicle: saline) was 102 % of control; the T/C (dose: 20.0 mg/kg/injection, schedule: Q01DX009 (ip), vehicle: saline) is 102 % of control; the T/C (dose: 40.0 mg/kg/injection, schedule: Q01DX009 (ip), vehicle: saline) is 104 % of control.

Take `CC(=O)/C=C/c1ccc(O)cc1`: the T/C reads like this: under setting [5], 113 % of control; under setting [6], 116 % of control; under setting [8], 93 % of control.

For the compound `Cc1ccccc1C(=O)NCC(=O)O`, the T/C under setting [3] was 107 % of control, the T/C under setting [12] was 99 % of control and the T/C under setting [13] was 95 % of control.
